Data published in US9604933B2, “Pyrazolochalcones as potential anticancer agents” (COUNCIL OF SCIENTIFIC AND INDUSTRIAL RESEARCH, priority 2013, dated 2017).
Read-outs that look alike come from different tables or passages of the source.

Assays:
[1] = system: T-47D; assay: NCI SRB cytotoxicity, breast T-47D; assay type: cell-based; conditions: Homo sapiens, T47D, 48 h exposure
Experimental: (§1) The pyrazolochalcones (7e, 8e, 10e, 11e, 12e, 13e and 8f) have been tested against fifty nine human tumor cell lines derived from nine cancer types (leukemia, non-small cell lung cancer, colon cancer, CNS cancer, melanoma, ovarian cancer, renal cancer, prostate cancer and breast cancer) as per the NCI protocol. For each compound, dose response curves for individual cell lines have been measured at a minimum of five concentrations at 10 fold dilutions. A protocol of 48 h continuous drug exposure has been used, and a sulforhodamine B (SRB) protein assay has been used to estimate cell viability or growth. The concentration for 50% cell growth inhibition (GI50), 50% cell death (LC50, 50% growth) and total cell growth inhibition (TGI, 0% growth) values were tabulated (Table-1). DMSO was used as control to calculate the values of GI50, LC50 and TGI. The compounds 7e, 8e, 10e, 11e, 12e, 13e and 8f has been evaluated for their in vitro cytotoxicity in […] cell lines from nine human cancer types of leukemia (K-562, SR), non-small cell lung (Hop-62, NCI-H226, NCI-H522), colon (HCT-116, HCT-15, HCC-2998), CNS (SF-539), melanoma (SK-MEL-5, UACC-62, M14), ovarian (IGROV1), renal (A498), prostate (PC3) and breast (BT-549, MDA-MB-435, HS578T) origin. The results are expressed as percent of cell growth determined relative to that of untreated control cells (Table 2).

[2] = system: Leukemia; assay: NCI SRB cytotoxicity, leukemia panel average; assay type: cell-based, human; conditions: average of cell lines
Experimental: as §1
(§2) Each cancer type represents the average of six to eight different cancer cell lines.

[3] = system: TK-10; assay: NCI SRB cytotoxicity, renal TK-10; assay type: cell-based; conditions: Homo sapiens, 48 h exposure
Experimental: as §1

[4] = system: IGROV1; assay: NCI SRB cytotoxicity, ovarian IGROV1; assay type: cell-based; conditions: Homo sapiens, IGROV-1, 48 h exposure
Experimental: as §1

[5] = system: SW-620; assay: NCI SRB cytotoxicity, colon SW-620; assay type: cell-based; conditions: Homo sapiens, 48 h exposure
Experimental: as §1

[6] = system: RXF 393; assay: NCI SRB cytotoxicity, renal RXF 393; assay type: cell-based; conditions: Homo sapiens, 48 h exposure
Experimental: as §1

[7] = system: CNS; assay: NCI SRB cytotoxicity, CNS panel average; assay type: cell-based, human; conditions: average of cell lines
Experimental: as §1, §2

[8] = system: OVCAR-5; assay: NCI SRB cytotoxicity, ovarian OVCAR-5; assay type: cell-based; conditions: Homo sapiens, 48 h exposure
Experimental: as §1

[9] = system: RPMI-8226; assay: NCI SRB cytotoxicity, leukemia RPMI-8226; assay type: cell-based; conditions: Homo sapiens, 48 h exposure
Experimental: as §1

[10] = system: Ovarian; assay: NCI SRB cytotoxicity, ovarian panel average; assay type: cell-based, human; conditions: average of cell lines
Experimental: as §1, §2

[11] = system: HCT-15; assay: NCI SRB cytotoxicity, colon HCT-15; assay type: cell-based; conditions: Homo sapiens, 48 h exposure
Experimental: as §1

[12] = system: BT-549; assay: NCI SRB cytotoxicity, breast BT-549; assay type: cell-based; conditions: Homo sapiens, 48 h exposure
Experimental: as §1

[13] = system: MCF7; assay: NCI SRB cytotoxicity, breast MCF7; assay type: cell-based; conditions: Homo sapiens, 48 h exposure
Experimental: as §1

[14] = system: NCIH322M; assay: NCI SRB cytotoxicity, non-small cell lung NCIH322M; assay type: cell-based; conditions: Homo sapiens, NCI-H322M, 48 h exposure
Experimental: as §1

[15] = system: Renal; assay: NCI SRB cytotoxicity, renal panel average; assay type: cell-based, human; conditions: average of cell lines
Experimental: as §1, §2

[16] = system: ACHN; assay: NCI SRB cytotoxicity, renal ACHN; assay type: cell-based; conditions: Homo sapiens, 48 h exposure
Experimental: as §1

[17] = system: NCI-H23; assay: NCI SRB cytotoxicity, non-small cell lung NCI-H23; assay type: cell-based; conditions: Homo sapiens, 48 h exposure
Experimental: as §1

[18] = system: MDA-MB-231/ATCC; assay: NCI SRB cytotoxicity, breast MDA-MB-231/ATCC; assay type: cell-based; conditions: Homo sapiens, 48 h exposure
Experimental: as §1

[19] = system: NCI/ADR-RES; assay: NCI SRB cytotoxicity, ovarian NCI/ADR-RES; assay type: cell-based; conditions: Homo sapiens, 48 h exposure
Experimental: as §1

[20] = system: Breast; assay: NCI SRB cytotoxicity, breast panel average; assay type: cell-based, human; conditions: average of cell lines
Experimental: as §1, §2

[21] = system: Colon; assay: NCI SRB cytotoxicity, colon panel average; assay type: cell-based, human; conditions: average of cell lines
Experimental: as §1, §2

[22] = system: HOP-62; assay: NCI SRB cytotoxicity, non-small cell lung HOP-62; assay type: cell-based; conditions: Homo sapiens, 48 h exposure
Experimental: as §1

[23] = system: HL-60(TB); assay: NCI SRB cytotoxicity, leukemia HL-60(TB); assay type: cell-based; conditions: Homo sapiens, 48 h exposure
Experimental: as §1

[24] = system: SK-MEL-5; assay: NCI SRB cytotoxicity, melanoma SK-MEL-5; assay type: cell-based; conditions: Homo sapiens, 48 h exposure
Experimental: as §1

[25] = system: UO-31; assay: NCI SRB cytotoxicity, renal UO-31; assay type: cell-based; conditions: Homo sapiens, 48 h exposure
Experimental: as §1

[26] = system: A498; assay: NCI SRB cytotoxicity, renal A498; assay type: cell-based; conditions: Homo sapiens, 48 h exposure
Experimental: as §1

[27] = system: Prostate; assay: NCI SRB cytotoxicity, prostate panel average; assay type: cell-based, human; conditions: average of cell lines
Experimental: as §1, §2

[28] = system: human tumor cell lines; assay: NCI SRB cytotoxicity, all fifty nine human tumor cell lines; assay type: cell-based; design: Log10 TGI mean graph midpoint (MG_MID): unit not given here; conditions: for GI50: Homo sapiens
Experimental: as §1
The mean graph midpoint values of Log10 TGI and Log10 LC50 as well as Log10 GI50 for compounds 7e, 8e, 10e, 11e, 12e, 13e and 8f is listed in Table-3. […] The mean graph mid points of Log10 TGI and Log10, LC50 have shown similar pattern to the log10 GI50 mean graph mid points.

[29] = system: 786-0; assay: NCI SRB cytotoxicity, renal 786-0; assay type: cell-based; conditions: Homo sapiens, 48 h exposure
Experimental: as §1

[30] = system: A549/ATCC; assay: NCI SRB cytotoxicity, non-small cell lung A549/ATCC; assay type: cell-based; conditions: Homo sapiens, 48 h exposure
Experimental: as §1

[31] = system: NCI-H226; assay: NCI SRB cytotoxicity, non-small cell lung NCI-H226; assay type: cell-based; conditions: Homo sapiens, 48 h exposure
Experimental: as §1

[32] = system: MOLT-4; assay: NCI SRB cytotoxicity, leukemia MOLT-4; assay type: cell-based; conditions: Homo sapiens, 48 h exposure
Experimental: as §1

[33] = system: MDA-MB-435; assay: NCI SRB cytotoxicity, breast panel MDA-MB-435; assay type: cell-based; conditions: Homo sapiens, 48 h exposure
Experimental: as §1

[34] = system: KM12; assay: NCI SRB cytotoxicity, colon KM12; assay type: cell-based; conditions: Homo sapiens, 48 h exposure
Experimental: as §1

[35] = Homo sapiens, read-out: Log10 LC50 (concentration in mol/L causing 50% cell death) (converted)

COc1cc(-c2cc(/C=C/C(=O)c3ccc4c(c3)OCO4)[nH]n2)cc(OC)c1OC [11e, (E)-1-(benzo[d][1,3]dioxol-5-yl)-3-(3-(3,4,5-trimethoxyphenyl)-1H-pyrazol-5-yl)prop-2-en-1-one]
GI50 [1]: 2510 nM | CC50 [2, 35]: 0.0001 mol/L | Log10 GI50 (concentration in mol/L causing 50% growth inhibition) [2]: −4.91 mol/L | Log10 TGI (concentration in mol/L causing total growth inhibition (0% growth)) [2]: −5.00 mol/L | GI50 [3]: 2330 nM | GI50 [4]: 5000 nM | GI50 [5]: 2470 nM | GI50 [6]: 1480 nM | LC50 [7, 35]: 63100 nM | Log10 GI50 (concentration in mol/L causing 50% growth inhibition) [7]: −4.2 mol/L | Log10 TGI (concentration in mol/L causing total growth inhibition (0% growth)) [7]: −4.83 mol/L | GI50 [8]: 3370 nM | GI50 [9]: 510 nM | CC50 [10, 35]: 0.0001 mol/L | Log10 GI50 (concentration in mol/L causing 50% growth inhibition) [10]: −4 mol/L | Log10 TGI (concentration in mol/L causing total growth inhibition (0% growth)) [10]: −4.38 mol/L | GI50 [11]: 2120 nM | GI50 [12]: 2370 nM | GI50 [13]: 1670 nM | GI50 [14]: 3010 nM | CC50 [15, 35]: 42700 nM | Log10 GI50 (concentration in mol/L causing 50% growth inhibition) [15]: −4.37 mol/L | Log10 TGI (concentration in mol/L causing total growth inhibition (0% growth)) [15]: −4.94 mol/L | GI50 [16]: 1880 nM | GI50 [17]: 2020 nM | GI50 [18]: 3500 nM | GI50 [19]: 4230 nM | CC50 [20, 35]: 0.000295 mol/L | Log10 GI50 (concentration in mol/L causing 50% growth inhibition) [20]: −3.53 mol/L | Log10 TGI (concentration in mol/L causing total growth inhibition (0% growth)) [20]: −4.60 mol/L | LC50 [21, 35]: 21900 nM | Log10 GI50 (concentration in mol/L causing 50% growth inhibition) [21]: −4.66 mol/L | Log10 TGI (concentration in mol/L causing total growth inhibition) [21]: −5.33 mol/L | GI50 [22]: 2180 nM | GI50 [23]: 2170 nM | GI50 [24]: 4510 nM | GI50 [25]: 1910 nM | GI50 [26]: 2760 nM | CC50 [27, 35]: 0.0001 mol/L | Log10 GI50 (concentration in mol/L causing 50% growth inhibition) [27]: −4 mol/L | Log10 TGI (concentration in mol/L causing total growth inhibition (0% growth)) [27]: −4.94 mol/L | GI50 ([28]; across fifty nine cell lines in nine cell panels, read-out: GI50 value range): 180 to 29200 nM | GI50 ([28]; against human tumor cell lines, read-out: Log10 GI50 mean graph midpoint (MG_MID) (converted)): 2690 nM | cytotoxicity ([28]; against cancer cell lines, in words): significant cytotoxicity | Log10 TGI mean graph midpoint (MG_MID) ([28]; against human tumor cell lines): −4.77 | LC50 ([28]; against human tumor cell lines, read-out: Log10 LC50 mean graph midpoint (MG_MID) (converted)): 61700 nM | GI50 [29]: 2330 nM | GI50 [30]: 4320 nM | GI50 [31]: 3310 nM | GI50 [32]: 2980 nM | GI50 [33]: 1400 nM | GI50 [34]: 1760 nM
